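96-well plates; 48 h exposure; 5 concentrations. Endpoints by linear interpolation between flanking doses. Not reached: highest tested concentration assigned. The concentration for full growth arrest is given as TGI.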
Columns and labels:
Test in all cases: growth of human tumour cells (NCI), 48 h
786-0 renal = system: 786-0 renal
A498 renal = system: A498 renal
A549 NSCLC = system: A549 NSCLC
ACHN renal = system: ACHN renal
CAKI-1 renal = system: CAKI-1 renal
COLO 205 colon = system: COLO 205 colon
DU-145 prostate = system: DU-145 prostate
EKVX NSCLC = system: EKVX NSCLC
HCC-2998 colon = system: HCC-2998 colon
HCT-116 colon = system: HCT-116 colon
HCT-15 colon = system: HCT-15 colon
HL-60(TB) leukemia = system: HL-60(TB) leukemia
HOP-62 NSCLC = system: HOP-62 NSCLC
HOP-92 NSCLC = system: HOP-92 NSCLC
HS 578T breast = system: HS 578T breast
HT29 colon = system: HT29 colon
IGROV1 ovarian = system: IGROV1 ovarian
K-562 leukemia = system: K-562 leukemia
KM12 colon = system: KM12 colon
LOX IMVI melanoma = system: LOX IMVI melanoma
M14 melanoma = system: M14 melanoma
MALME-3M melanoma = system: MALME-3M melanoma
MCF7 breast = system: MCF7 breast
MDA-MB-231 breast = system: MDA-MB-231 breast
MDA-MB-435 = system: MDA-MB-435
MDA-N = system: MDA-N
MOLT-4 leukemia = system: MOLT-4 leukemia
NCI-H226 lung = system: NCI-H226 lung
NCI-H23 lung = system: NCI-H23 lung
NCI-H460 lung = system: NCI-H460 lung
NCI-H522 lung = system: NCI-H522 lung
NCI/ADR-RES ovarian = system: NCI/ADR-RES ovarian
OVCAR-3 ovarian = system: OVCAR-3 ovarian
OVCAR-4 ovarian = system: OVCAR-4 ovarian
OVCAR-5 ovarian = system: OVCAR-5 ovarian
OVCAR-8 ovarian = system: OVCAR-8 ovarian
PC-3 prostate = system: PC-3 prostate
RXF 393 renal = system: RXF 393 renal
SF-268 CNS = system: SF-268 CNS
SF-295 CNS = system: SF-295 CNS
SF-539 CNS = system: SF-539 CNS
SK-MEL-2 melanoma = system: SK-MEL-2 melanoma
SK-MEL-28 melanoma = system: SK-MEL-28 melanoma
SK-MEL-5 melanoma = system: SK-MEL-5 melanoma
SK-OV-3 ovarian = system: SK-OV-3 ovarian
SN12C renal = system: SN12C renal
SNB-19 CNS = system: SNB-19 CNS
SNB-75 CNS = system: SNB-75 CNS
SR leukemia = system: SR leukemia
SW-620 colon = system: SW-620 colon
T-47D breast = system: T-47D breast
TK-10 renal = system: TK-10 renal
U251 CNS = system: U251 CNS
UACC-257 melanoma = system: UACC-257 melanoma
UACC-62 melanoma = system: UACC-62 melanoma
UO-31 renal = system: UO-31 renal
CCRF-CEM leukemia = system: CCRF-CEM leukemia
RPMI-8226 leukemia = system: RPMI-8226 leukemia

Compound COc1cc(C(=O)NC(CCN)(c2ccccc2)c2ccccc2)cc(OC)c1OC has a TGI (786-0 renal) greater than 31.6 µM, a TGI (A498 renal) of 17.5 µM and a TGI (A549 NSCLC) greater than 31.6 µM. It also gave a TGI (ACHN renal) greater than 31.6 µM, a TGI (CAKI-1 renal) of 87.6 µM and a TGI (COLO 205 colon) of 19 µM. The TGI (DU-145 prostate) was greater than 31.6 µM, the TGI (EKVX NSCLC) was greater than 31.6 µM and the TGI (HCC-2998 colon) was 19.8 µM. It also gave a TGI (HCT-116 colon) greater than 95.3 µM, a TGI (HCT-15 colon) greater than 31.6 µM and a TGI (HL-60(TB) leukemia) of 18.5 µM. It also gave a TGI (HOP-62 NSCLC) greater than 31.6 µM, a TGI (HOP-92 NSCLC) of 25.5 µM and a TGI (HS 578T breast) greater than 92.6 µM. It also gave a TGI (HT29 colon) of 28.3 µM, a TGI (IGROV1 ovarian) greater than 31.6 µM and a TGI (K-562 leukemia) of 23.1 µM. The TGI (KM12 colon) was greater than 31.6 µM, the TGI (LOX IMVI melanoma) was greater than 31.6 µM and the TGI (M14 melanoma) was 19.1 µM. For the same compound, the TGI (MALME-3M melanoma) was 18.4 µM, the TGI (MCF7 breast) was greater than 31.6 µM and the TGI (MDA-MB-231 breast) was greater than 31.5 µM. The TGI (MDA-MB-435) was greater than 31.6 µM, the TGI (MDA-N) was greater than 100 µM and the TGI (MOLT-4 leukemia) was 21.5 µM. It also gave a TGI (NCI-H226 lung) of 98.9 µM, a TGI (NCI-H23 lung) greater than 31.6 µM and a TGI (NCI-H460 lung) greater than 31.6 µM. The TGI (NCI-H522 lung) was greater than 100 µM, the TGI (NCI/ADR-RES ovarian) was greater than 100 µM and the TGI (OVCAR-3 ovarian) was greater than 100 µM. The TGI (OVCAR-4 ovarian) was greater than 31.6 µM, the TGI (OVCAR-5 ovarian) was greater than 100 µM and the TGI (OVCAR-8 ovarian) was greater than 31.6 µM. For the same compound, the TGI (PC-3 prostate) was greater than 100 µM, the TGI (RXF 393 renal) was 27.6 µM and the TGI (SF-268 CNS) was greater than 31.6 µM. It also gave a TGI (SF-295 CNS) greater than 31.6 µM, a TGI (SF-539 CNS) greater than 100 µM and a TGI (SK-MEL-2 melanoma) greater than 100 µM. The TGI (SK-MEL-28 melanoma) was 21.4 µM, the TGI (SK-MEL-5 melanoma) was 18 µM and the TGI (SK-OV-3 ovarian) was greater than 31.6 µM. It also gave a TGI (SN12C renal) greater than 31.6 µM, a TGI (SNB-19 CNS) greater than 100 µM and a TGI (SNB-75 CNS) of 30.4 µM. The TGI (SR leukemia) was 24 µM, the TGI (SW-620 colon) was greater than 31.6 µM and the TGI (T-47D breast) was greater than 31.6 µM. The TGI (TK-10 renal) was greater than 31.6 µM, the TGI (U251 CNS) was greater than 100 µM and the TGI (UACC-257 melanoma) was 22.3 µM. The TGI (UACC-62 melanoma) was greater than 31.6 µM and the TGI (UO-31 renal) was greater than 64.4 µM.

In the case of CCN(CC)CCOc1ccc(N2C(=O)c3cccc4cc([N+](=O)[O-])cc(c34)C2=O)cc1, the TGI (786-0 renal) is reported as 18.3 µM, the TGI (A498 renal) is reported as 25.4 µM and the TGI (A549 NSCLC) is reported as 19.8 µM. It also gave a TGI (ACHN renal) of 15.9 µM, a TGI (CAKI-1 renal) of 26 µM and a TGI (CCRF-CEM leukemia) of 30.8 µM. For the same compound, the TGI (COLO 205 colon) was 64.2 µM, the TGI (DU-145 prostate) was 24.3 µM and the TGI (EKVX NSCLC) was 35.4 µM. The TGI (HCC-2998 colon) was 25 µM, the TGI (HCT-116 colon) was 20.5 µM and the TGI (HCT-15 colon) was 26.1 µM. For the same compound, the TGI (HL-60(TB) leukemia) was 28.2 µM, the TGI (HOP-62 NSCLC) was 15.4 µM and the TGI (HOP-92 NSCLC) was 44.1 µM. The TGI (HS 578T breast) was 42.5 µM, the TGI (HT29 colon) was 18.3 µM and the TGI (IGROV1 ovarian) was 22.3 µM. The TGI (KM12 colon) was 64.5 µM, the TGI (LOX IMVI melanoma) was 20.4 µM and the TGI (M14 melanoma) was 25.3 µM. For the same compound, the TGI (MALME-3M melanoma) was 26.9 µM, the TGI (MCF7 breast) was 23.5 µM and the TGI (MDA-MB-231 breast) was 37.6 µM. The TGI (MDA-MB-435) was 26.6 µM, the TGI (MDA-N) was 30.3 µM and the TGI (MOLT-4 leukemia) was 11.3 µM. For the same compound, the TGI (NCI-H226 lung) was 19 µM, the TGI (NCI-H23 lung) was 26.5 µM and the TGI (NCI-H460 lung) was 15.5 µM. It also gave a TGI (NCI-H522 lung) of 19.7 µM, a TGI (NCI/ADR-RES ovarian) of 60 µM and a TGI (OVCAR-4 ovarian) of 31 µM. For the same compound, the TGI (OVCAR-5 ovarian) was 20.9 µM, the TGI (OVCAR-8 ovarian) was 34.5 µM and the TGI (PC-3 prostate) was 35.2 µM. The TGI (SF-268 CNS) was 27.1 µM, the TGI (SF-295 CNS) was 21.1 µM and the TGI (SF-539 CNS) was 25.1 µM. For the same compound, the TGI (SK-MEL-2 melanoma) was 33.7 µM, the TGI (SK-MEL-28 melanoma) was 25.3 µM and the TGI (SK-MEL-5 melanoma) was 26.6 µM. It also gave a TGI (SN12C renal) of 40.9 µM, a TGI (SNB-19 CNS) of 30.3 µM and a TGI (SNB-75 CNS) of 35.1 µM. For the same compound, the TGI (SR leukemia) was 32.8 µM, the TGI (SW-620 colon) was 25.8 µM and the TGI (T-47D breast) was 39.3 µM. It also gave a TGI (TK-10 renal) of 26 µM, a TGI (U251 CNS) of 22.6 µM and a TGI (UACC-257 melanoma) of 27 µM. For the same compound, the TGI (UO-31 renal) was 21.7 µM.

C=C1OC(=O)[C@]2([C@@H](/C=C/C)C=CC(=O)[C@H]2O)[C@@H]1O was tested, and the TGI (786-0 renal) was greater than 100 µM, the TGI (A549 NSCLC) was greater than 100 µM and the TGI (ACHN renal) was greater than 100 µM. It also gave a TGI (CAKI-1 renal) greater than 100 µM, a TGI (CCRF-CEM leukemia) greater than 100 µM and a TGI (COLO 205 colon) greater than 100 µM. The TGI (DU-145 prostate) was greater than 100 µM, the TGI (EKVX NSCLC) was greater than 100 µM and the TGI (HCC-2998 colon) was greater than 100 µM. The TGI (HCT-116 colon) was greater than 100 µM, the TGI (HCT-15 colon) was greater than 100 µM and the TGI (HL-60(TB) leukemia) was greater than 100 µM. The TGI (HOP-62 NSCLC) was greater than 100 µM, the TGI (HS 578T breast) was greater than 100 µM and the TGI (HT29 colon) was greater than 100 µM. For the same compound, the TGI (IGROV1 ovarian) was greater than 100 µM, the TGI (K-562 leukemia) was greater than 100 µM and the TGI (KM12 colon) was greater than 100 µM. It also gave a TGI (LOX IMVI melanoma) greater than 100 µM, a TGI (M14 melanoma) greater than 100 µM and a TGI (MALME-3M melanoma) greater than 100 µM. It also gave a TGI (MCF7 breast) greater than 100 µM, a TGI (MDA-MB-231 breast) greater than 100 µM and a TGI (MDA-MB-435) greater than 100 µM. The TGI (MDA-N) was greater than 100 µM, the TGI (MOLT-4 leukemia) was greater than 100 µM and the TGI (NCI-H226 lung) was greater than 100 µM. It also gave a TGI (NCI-H23 lung) greater than 100 µM, a TGI (NCI-H460 lung) greater than 100 µM and a TGI (NCI-H522 lung) greater than 100 µM. For the same compound, the TGI (NCI/ADR-RES ovarian) was greater than 100 µM, the TGI (OVCAR-3 ovarian) was greater than 100 µM and the TGI (OVCAR-4 ovarian) was greater than 100 µM. For the same compound, the TGI (OVCAR-5 ovarian) was greater than 100 µM, the TGI (OVCAR-8 ovarian) was greater than 100 µM and the TGI (PC-3 prostate) was greater than 100 µM. The TGI (RPMI-8226 leukemia) was greater than 100 µM, the TGI (RXF 393 renal) was greater than 100 µM and the TGI (SF-268 CNS) was greater than 100 µM. The TGI (SF-295 CNS) was greater than 100 µM, the TGI (SF-539 CNS) was greater than 100 µM and the TGI (SK-MEL-2 melanoma) was greater than 100 µM. The TGI (SK-MEL-28 melanoma) was greater than 100 µM, the TGI (SK-MEL-5 melanoma) was greater than 100 µM and the TGI (SK-OV-3 ovarian) was greater than 100 µM. For the same compound, the TGI (SN12C renal) was greater than 100 µM, the TGI (SNB-19 CNS) was greater than 100 µM and the TGI (SNB-75 CNS) was greater than 100 µM. For the same compound, the TGI (SR leukemia) was greater than 100 µM, the TGI (SW-620 colon) was greater than 100 µM and the TGI (T-47D breast) was greater than 100 µM. The TGI (TK-10 renal) was greater than 100 µM, the TGI (U251 CNS) was greater than 100 µM and the TGI (UACC-257 melanoma) was greater than 100 µM. The TGI (UACC-62 melanoma) was greater than 100 µM and the TGI (UO-31 renal) was greater than 100 µM.

Source: PubChem BioAssay (NCI)
